Earlier results in patent publication US9700504B2, “Composition and method for an intradermal hair growth solution” (priority 2012, dated 2017).

System: human hair follicles
Conditions: ex vivo human hair follicles and cultured dermal papilla cells

For “L-alanyl-L-histidyl-L-lysine-Cu^2+ [AHK-Cu]”, the “effect on human hair growth” value is listed as “promotes the growth of human hair follicles”.
